From paper PMC5218480 (PLoS ONE, 2017)

Tested on: MV-4-11 cells
Experiment: Gene expression microarray analysis (Affymetrix PrimeView) and GSEA
Assay type: cell-based, human
Design: RFU PODN (11730768_x_at) / Fold change /veh PODN (11730768_x_at) / RFU LINC00158 (11744669_a_at) / Fold change /veh LINC00158 (11744669_a_at) / RFU DUSP10 (11751237_a_at) / Fold change /veh DUSP10 (11751237_a_at) / RFU ID3 (11757404_x_at) / Fold change /veh ID3 (11757404_x_at) / RFU PLEKHG5 (11737974_s_at) / Fold change /veh PLEKHG5 (11737974_s_at) / RFU LRRC4B (11730491_at) / Fold change /veh LRRC4B (11730491_at) / RFU GIMAP4 (11747438_a_at) / Fold change /veh GIMAP4 (11747438_a_at) / RFU KRT8 (11758183_x_at) / Fold change /veh KRT8 (11758183_x_at) / RFU CNN1 (11734310_a_at) / Fold change /veh CNN1 (11734310_a_at) / RFU VPS37D (11726825_at) / Fold change /veh VPS37D (11726825_at) / RFU C10orf10 (11716522_x_at) / Fold change /veh C10orf10 (11716522_x_at) / RFU KIR2DL2 /// KIR2DL4 /// KIR2DL5A /// KIR2DL5B /// KIR2DS1 /// KIR2DS2 /// KIR2DS3 /// KIR2DS4 /// KIR3DL3 /// KIR3DL3 /// KIR3DS1 (11738374_at) / Fold change /veh KIR2DL2 /// KIR2DL4 /// KIR2DL5A /// KIR2DL5B /// KIR2DS1 /// KIR2DS2 /// KIR2DS3 /// KIR2DS4 /// KIR3DL3 /// KIR3DL3 /// KIR3DS1 (11738374_at) / RFU C1QL1 (11718748_at) / Fold change /veh C1QL1 (11718748_at) / RFU TMPRSS4 (11747572_a_at) / Fold change /veh TMPRSS4 (11747572_a_at) / RFU HAMP (11756126_x_at) / Fold change /veh HAMP (11756126_x_at) / RFU RNFT2 (11725882_a_at) / Fold change /veh RNFT2 (11725882_a_at) / RFU NR4A2 (11747474_a_at) / Fold change /veh NR4A2 (11747474_a_at) / RFU ABCC12 (11746883_a_at) / Fold change /veh ABCC12 (11746883_a_at) / RFU TMEM136 (11760407_x_at) / Fold change /veh TMEM136 (11760407_x_at) / RFU CLDN22 /// WWC2 (11732394_at) / Fold change /veh CLDN22 /// WWC2 (11732394_at) / RFU HLA-DPB1 (11760878_x_at) / Fold change /veh HLA-DPB1 (11760878_x_at) / RFU SPINT1 (11716480_a_at) / Fold change /veh SPINT1 (11716480_a_at) / RFU GAP43 (11754022_s_at) / Fold change /veh GAP43 (11754022_s_at) / RFU A4GNT (11735810_at) / Fold change /veh A4GNT (11735810_at) / RFU PRB3 (11715151_x_at) / Fold change /veh PRB3 (11715151_x_at) / RFU TUBB4B (11761932_at) / Fold change /veh TUBB4B (11761932_at) / RFU CAPN14 (11732068_a_at) / Fold change /veh CAPN14 (11732068_a_at) / RFU TMCC2 (11721928_a_at) / Fold change /veh TMCC2 (11721928_a_at) / RFU IRGQ (11745062_a_at) / Fold change /veh IRGQ (11745062_a_at) / RFU FAM174B (11720279_a_at) / Fold change /veh FAM174B (11720279_a_at) / RFU TMPRSS4 (11748680_a_at) / Fold change /veh TMPRSS4 (11748680_a_at) / RFU FAM212B (11763350_a_at) / Fold change /veh FAM212B (11763350_a_at) / RFU PLEKHG5 (11743358_a_at) / Fold change /veh PLEKHG5 (11743358_a_at) / RFU ZSCAN30 (11745921_a_at) / Fold change /veh ZSCAN30 (11745921_a_at) / RFU CMKLR1 (11741424_a_at) / Fold change /veh CMKLR1 (11741424_a_at) / RFU LOC101060620 /// MAPK8IP1 (11723275_at) / Fold change /veh LOC101060620 /// MAPK8IP1 (11723275_at) / RFU SPTSSB (11747773_x_at) / Fold change /veh SPTSSB (11747773_x_at) / RFU PRSS12 (11739890_at) / Fold change /veh PRSS12 (11739890_at) / RFU BIN1 (11741810_x_at) / Fold change /veh BIN1 (11741810_x_at) / RFU WNT11 (11732464_a_at) / Fold change /veh WNT11 (11732464_a_at) / RFU C10orf10 (11716521_a_at) / Fold change /veh C10orf10 (11716521_a_at) / RFU C5orf56 (11738089_at) / Fold change /veh C5orf56 (11738089_at) / RFU CYB561 (11721691_x_at) / Fold change /veh CYB561 (11721691_x_at) / RFU ANKRD19P (11752326_a_at) / Fold change /veh ANKRD19P (11752326_a_at) / RFU OR2T12 /// OR2T33 /// OR2T8 (11738714_s_at) / Fold change /veh OR2T12 /// OR2T33 /// OR2T8 (11738714_s_at) / RFU VCAN (11748164_a_at) / Fold change /veh VCAN (11748164_a_at) / RFU JSRP1 (11732532_at) / Fold change /veh JSRP1 (11732532_at) / RFU KRTAP10-11 (11738290_x_at) / Fold change /veh KRTAP10-11 (11738290_x_at) / RFU MYO3A (11730013_a_at) / Fold change /veh MYO3A (11730013_a_at) / RFU EBF3 (11725865_a_at) / Fold change /veh EBF3 (11725865_a_at) / RFU CAMK2N1 (11719241_x_at) / Fold change /veh CAMK2N1 (11719241_x_at) / RFU C5orf56 (11738088_a_at) / Fold change /veh C5orf56 (11738088_a_at) / RFU OLFML3 (11715873_a_at) / Fold change /veh OLFML3 (11715873_a_at) / RFU LOC100653217 /// NTM (11731650_a_at) / Fold change /veh LOC100653217 /// NTM (11731650_a_at) / RFU MAPK11 (11762145_a_at) / Fold change /veh MAPK11 (11762145_a_at) / RFU FIZ1 (11724087_x_at) / Fold change /veh FIZ1 (11724087_x_at) / RFU OASL (11726364_x_at) / Fold change /veh OASL (11726364_x_at) / RFU SOX15 (11748057_x_at) / Fold change /veh SOX15 (11748057_x_at) / RFU CD79A (11719716_a_at) / Fold change /veh CD79A (11719716_a_at) / RFU HIST1H1D (11736915_at) / Fold change /veh HIST1H1D (11736915_at) / RFU CASKIN2 (11723855_a_at) / Fold change /veh CASKIN2 (11723855_a_at) / RFU LOC730098 (11760151_x_at) / Fold change /veh LOC730098 (11760151_x_at) / RFU OR4N2 (11742367_at) / Fold change /veh OR4N2 (11742367_at) / RFU PRRT2 (11749266_a_at) / Fold change /veh PRRT2 (11749266_a_at) / RFU SNX32 (11753110_a_at) / Fold change /veh SNX32 (11753110_a_at) / RFU CDHR5 (11726645_a_at) / Fold change /veh CDHR5 (11726645_a_at) / RFU RCAN1 (11760418_a_at) / Fold change /veh RCAN1 (11760418_a_at) / RFU FAM167A (11723789_a_at) / Fold change /veh FAM167A (11723789_a_at) / RFU FAM26E (11764081_at) / Fold change /veh FAM26E (11764081_at) / RFU ISYNA1 (11749810_s_at) / Fold change /veh ISYNA1 (11749810_s_at) / RFU ACY1 (11761880_at) / Fold change /veh ACY1 (11761880_at) / RFU 11764098_at / Fold change /veh 11764098_at / RFU SAMD14 (11745864_x_at) / Fold change /veh SAMD14 (11745864_x_at) / RFU NPB (11741838_a_at) / Fold change /veh NPB (11741838_a_at) / RFU TMPRSS6 (11731388_a_at) / Fold change /veh TMPRSS6 (11731388_a_at) / RFU KRTAP10-2 (11738614_at) / Fold change /veh KRTAP10-2 (11738614_at) / RFU ARHGAP8 /// PRR5-ARHGAP8 (11727945_x_at) / Fold change /veh ARHGAP8 /// PRR5-ARHGAP8 (11727945_x_at) / RFU KRTAP5-7 /// NADSYN1 (11734609_at) / Fold change /veh KRTAP5-7 /// NADSYN1 (11734609_at) / RFU RASL12 (11751679_a_at) / Fold change /veh RASL12 (11751679_a_at) / RFU CDKN2B (11736163_a_at) / Fold change /veh CDKN2B (11736163_a_at) / RFU PRF1 (11729649_at) / Fold change /veh PRF1 (11729649_at) / RFU, ZNF638 /// ZNF638-IT1 / Fold change vs veh, ZNF638 /// ZNF638-IT1 / RFU, PANK3 / Fold change vs veh, PANK3 / RFU, SH3YL1 / Fold change vs veh, SH3YL1 / RFU, ZEB2 / Fold change vs veh, ZEB2 / RFU, NRIP1 / Fold change vs veh, NRIP1 / RFU, PTTG1IP / Fold change vs veh, PTTG1IP / RFU, CAPN2 / Fold change vs veh, CAPN2 / RFU, MED14 / Fold change vs veh, MED14 / RFU, SNORA58 / Fold change vs veh, SNORA58 / RFU, C1orf63 / Fold change vs veh, C1orf63 / RFU, LRRFIP1 / Fold change vs veh, LRRFIP1 / RFU, NDUFAF7 / Fold change vs veh, NDUFAF7 / RFU, SLC12A2 / Fold change vs veh, SLC12A2 / RFU, IBTK / Fold change vs veh, IBTK / RFU, ESF1 / Fold change vs veh, ESF1 / Fold change vs veh, TMEM50B / RFU, TAOK1 / Fold change vs veh, TAOK1 / RFU, ACBD3 / Fold change vs veh, ACBD3 / RFU, TMA16 / Fold change vs veh, TMA16 / RFU, RWDD3 / Fold change vs veh, RWDD3 / RFU, BCAT1 / Fold change vs veh, BCAT1 / RFU, EDEM3 / Fold change vs veh, EDEM3 / RFU, TMEM33 / Fold change vs veh, TMEM33 / RFU, WDR75 / Fold change vs veh, WDR75 / RFU, AHCTF1 / Fold change vs veh, AHCTF1 / RFU, TFRC / Fold change vs veh, TFRC / RFU, ZDHHC17 / Fold change vs veh, ZDHHC17 / RFU, NOM1 / Fold change vs veh, NOM1 / RFU, ARL8B / Fold change vs veh, ARL8B / RFU, ZBTB11 / Fold change vs veh, ZBTB11 / RFU, TAMM41 / Fold change vs veh, TAMM41 / RFU, KIAA1704 /// LOC100996395 / Fold change vs veh, KIAA1704 /// LOC100996395 / RFU, ING1 / Fold change vs veh, ING1 / RFU, TRMT61B / Fold change vs veh, TRMT61B / RFU, FUBP3 / Fold change vs veh, FUBP3 / RFU, TP53 / Fold change vs veh, TP53 / RFU, TNKS2 / Fold change vs veh, TNKS2 / RFU, ZFP14 / Fold change vs veh, ZFP14 / RFU, ACTR2 / Fold change vs veh, ACTR2 / RFU, PPP3R1 / Fold change vs veh, PPP3R1 / RFU, PIK3R1 / Fold change vs veh, PIK3R1 / RFU, HNRNPA1 / Fold change vs veh, HNRNPA1 / RFU, RNF170 / Fold change vs veh, RNF170 / RFU, ZNF28 / Fold change vs veh, ZNF28 / RFU, RNGTT / Fold change vs veh, RNGTT / RFU, OGT / Fold change vs veh, OGT / RFU, BRD1 / Fold change vs veh, BRD1 / RFU, MARS / Fold change vs veh, MARS / RFU, ZNF655 / Fold change vs veh, ZNF655 / RFU, FAHD1 / Fold change vs veh, FAHD1 / RFU, BDP1 / Fold change vs veh, BDP1 / RFU, LRRCC1 / Fold change vs veh, LRRCC1 / RFU, ARID1A / Fold change vs veh, ARID1A / RFU, ZNF146 / Fold change vs veh, ZNF146 / RFU, ZNF330 / Fold change vs veh, ZNF330 / RFU, GPN3 / Fold change vs veh, GPN3 / RFU, C9orf123 / Fold change vs veh, C9orf123 / RFU, N4BP2L2 / Fold change vs veh, N4BP2L2 / RFU, ARFIP1 / Fold change vs veh, ARFIP1 / RFU, FAM179B / Fold change vs veh, FAM179B / RFU, BCL10 / Fold change vs veh, BCL10 / RFU, UHRF1BP1L / Fold change vs veh, UHRF1BP1L / RFU, BET1 / Fold change vs veh, BET1 / RFU, CNOT2 / Fold change vs veh, CNOT2 / RFU, ZNF268 / Fold change vs veh, ZNF268 / Fold change vs veh, ZNF507 / RFU, DGCR2 / Fold change vs veh, DGCR2 / RFU, WDSUB1 / Fold change vs veh, WDSUB1 / Fold change vs veh, HSP90B1 /// MIR3652 / RFU, ADSS / Fold change vs veh, ADSS / RFU, GK / Fold change vs veh, GK / RFU, ZNF148 / Fold change vs veh, ZNF148 / RFU, TAF9 / Fold change vs veh, TAF9 / RFU, SLC1A5 / Fold change vs veh, SLC1A5 / RFU, SLMO2 / Fold change vs veh, SLMO2 / RFU, ABCC4 / Fold change vs veh, ABCC4 / RFU, LOC101060439 /// RAP1B / Fold change vs veh, LOC101060439 /// RAP1B / RFU, RFX7 / Fold change vs veh, RFX7 / RFU, GTPBP10 / Fold change vs veh, GTPBP10 / RFU, CNEP1R1 / Fold change vs veh, CNEP1R1 / RFU, BIVM-ERCC5 /// ERCC5 / Fold change vs veh, BIVM-ERCC5 /// ERCC5 / RFU, ILF3 / Fold change vs veh, ILF3 / RFU 11762660_at / Fold change /veh 11762660_at / RFU VCAN (11757783_s_at) / Fold change /veh VCAN (11757783_s_at) / RFU DDX43 (11728927_at) / Fold change /veh DDX43 (11728927_at) / RFU KRT8 (11758188_x_at) / Fold change /veh KRT8 (11758188_x_at) / RFU NKD1 (11759106_at) / Fold change /veh NKD1 (11759106_at) / RFU SRD5A1 (11742802_a_at) / Fold change /veh SRD5A1 (11742802_a_at) / RFU TPSAB1 /// TPSB2 (11721975_s_at) / Fold change /veh TPSAB1 /// TPSB2 (11721975_s_at) / RFU GSTM3 (11746129_a_at) / Fold change /veh GSTM3 (11746129_a_at) / RFU IL23R (11737362_x_at) / Fold change /veh IL23R (11737362_x_at) / RFU TMEM51 (11727254_a_at) / Fold change /veh TMEM51 (11727254_a_at) / RFU PIWIL2 (11732686_x_at) / Fold change /veh PIWIL2 (11732686_x_at) / RFU ORM1 (11744905_x_at) / Fold change /veh ORM1 (11744905_x_at) / RFU CCDC152 (11743942_at) / Fold change /veh CCDC152 (11743942_at) / RFU ECM1 (11717891_a_at) / Fold change /veh ECM1 (11717891_a_at) / RFU IL23R (11748794_a_at) / Fold change /veh IL23R (11748794_a_at) / RFU TNFAIP8L3 (11732012_x_at) / Fold change /veh TNFAIP8L3 (11732012_x_at) / RFU MBOAT4 (11741988_at) / Fold change /veh MBOAT4 (11741988_at) / RFU 11764193_at / Fold change /veh 11764193_at / RFU TMEM53 (11763286_at) / Fold change /veh TMEM53 (11763286_at) / RFU MAGEB2 (11727129_at) / Fold change /veh MAGEB2 (11727129_at) / RFU TMEM200A (11744735_a_at) / Fold change /veh TMEM200A (11744735_a_at) / RFU CCDC152 (11751479_a_at) / Fold change /veh CCDC152 (11751479_a_at) / RFU FAM211A (11726209_a_at) / Fold change /veh FAM211A (11726209_a_at) / RFU RGS16 (11746705_a_at) / Fold change /veh RGS16 (11746705_a_at) / RFU VCAN (11755009_s_at) / Fold change /veh VCAN (11755009_s_at) / RFU RHOB (11743442_s_at) / Fold change /veh RHOB (11743442_s_at) / RFU RGS16 (11720943_a_at) / Fold change /veh RGS16 (11720943_a_at) / RFU RGS16 (11720944_at) / Fold change /veh RGS16 (11720944_at) / RFU, VPS4B / Fold change vs veh, VPS4B / RFU, CREB1 / Fold change vs veh, CREB1 / RFU, DNAJC13 / Fold change vs veh, DNAJC13 / RFU, GNAQ / Fold change vs veh, GNAQ / RFU, CDK5R1 / Fold change vs veh, CDK5R1 / RFU, ZRANB3 / Fold change vs veh, ZRANB3 / RFU, CUL4A / Fold change vs veh, CUL4A / RFU, CCNY / Fold change vs veh, CCNY / RFU, UFL1 / Fold change vs veh, UFL1 / RFU, COG3 / Fold change vs veh, COG3 / RFU, DIAPH2 / Fold change vs veh, DIAPH2 / RFU, SKA2 / Fold change vs veh, SKA2 / RFU, AFF3 / Fold change vs veh, AFF3 / RFU, LMF1 / Fold change vs veh, LMF1 / RFU, IPO11 / Fold change vs veh, IPO11 / RFU, DFFB / Fold change vs veh, DFFB / RFU, FOXP1 / Fold change vs veh, FOXP1 / RFU, CARD8 / Fold change vs veh, CARD8 / RFU, STRN3 / Fold change vs veh, STRN3 / RFU, ADK / Fold change vs veh, ADK / RFU, RASSF2 / Fold change vs veh, RASSF2 / RFU, WIPF1 / Fold change vs veh, WIPF1 / RFU, LARP1B / Fold change vs veh, LARP1B / RFU, RASA1 / Fold change vs veh, RASA1 / RFU, RB1 / Fold change vs veh, RB1 / RFU, PPFIA1 / Fold change vs veh, PPFIA1 / RFU, MAT2A / Fold change vs veh, MAT2A / RFU, CCT5 / Fold change vs veh, CCT5 / RFU, WDR92 / Fold change vs veh, WDR92 / RFU, CUX1 / Fold change vs veh, CUX1 / RFU, TTC7A / Fold change vs veh, TTC7A / RFU, TMEM135 / Fold change vs veh, TMEM135 / RFU, DEPTOR / Fold change vs veh, DEPTOR / RFU, CPM / Fold change vs veh, CPM / RFU, DNAJB6 / Fold change vs veh, DNAJB6 / RFU, CACNA2D3 / Fold change vs veh, CACNA2D3 / RFU, DTX4 / Fold change vs veh, DTX4 / RFU, TFCP2 / Fold change vs veh, TFCP2 / RFU, GMCL1 /// GMCL1P1 / Fold change vs veh, GMCL1 /// GMCL1P1 / RFU, AEBP2 / Fold change vs veh, AEBP2 / RFU, SNHG1 /// SNORD22 /// SNORD25 /// SNORD26 /// SNORD27 /// SNORD28 /// SNORD29 /// SNORD31 / Fold change vs veh, SNHG1 /// SNORD22 /// SNORD25 /// SNORD26 /// SNORD27 /// SNORD28 /// SNORD29 /// SNORD31 / Fold change (Aza/veh), C12orf56 (ProbeSet 11735607_a_at) / Fold change (ACY-1035/veh), C12orf56 (ProbeSet 11735607_a_at) / Fold change (Aza/veh), FGFR1OP (ProbeSet 11751329_s_at) / Fold change (ACY-1035/veh), FGFR1OP (ProbeSet 11751329_s_at) / Fold change (Aza/veh), VPS36 (ProbeSet 11739960_a_at) / Fold change (ACY-1035/veh), VPS36 (ProbeSet 11739960_a_at) / RFU SYPL1 (11715823_x_at) / Fold change /veh SYPL1 (11715823_x_at) / RFU IGFBP7 (11715501_s_at) / Fold change /veh IGFBP7 (11715501_s_at) / RFU REEP3 (11722064_at) / Fold change /veh REEP3 (11722064_at) / RFU IGLL1 (11728026_x_at) / Fold change /veh IGLL1 (11728026_x_at): dose or concentration left out as unconfirmed
Details: MV-4-11 cells, 48 hours

Nc1ccc(-c2cccs2)cc1NC(=O)c1ccc2c(c1)cc(C1CC1)n2CCN1CCOCC1 [ACY-1035]
RFU FAM211A (11726209_a_at): 5.89 RFU
